# Data as given in patent US20070021439A1, “Methods of reducing risk of infection from pathogens with soluble amide and ester pyrazinoylguanidine sodium channel blockers” (Parion Sciences, Inc., priority 2005, published 2007).
# Structures can show the parent of a compound that is named as a salt. Where two headings read alike, the source gives them in different places.
# Legend:
# [1] = molecular target: T1, ENaC (epithelial sodium channel) (Canis lupus familiaris, UniProt A0A8I3MKE6+A0A8I3Q679+Q95165); assay: Epithelial sodium channel blocking activity (short circuit current, Ussing chambers) in canine bronchial epithelium; assay type: cell-based; conditions: for Fold Amiloride (PSA4022 = 100): relative potency, PSA4022 = 100, using IC50 from PSA4022 in same run
# T1 construct: endogenous in cells; host or cells: primary canine bronchial (airway) epithelial cells cultured at air-liquid interface, mounted in Ussing chambers
# T1 sequence (A0A8I3Q679 1-649): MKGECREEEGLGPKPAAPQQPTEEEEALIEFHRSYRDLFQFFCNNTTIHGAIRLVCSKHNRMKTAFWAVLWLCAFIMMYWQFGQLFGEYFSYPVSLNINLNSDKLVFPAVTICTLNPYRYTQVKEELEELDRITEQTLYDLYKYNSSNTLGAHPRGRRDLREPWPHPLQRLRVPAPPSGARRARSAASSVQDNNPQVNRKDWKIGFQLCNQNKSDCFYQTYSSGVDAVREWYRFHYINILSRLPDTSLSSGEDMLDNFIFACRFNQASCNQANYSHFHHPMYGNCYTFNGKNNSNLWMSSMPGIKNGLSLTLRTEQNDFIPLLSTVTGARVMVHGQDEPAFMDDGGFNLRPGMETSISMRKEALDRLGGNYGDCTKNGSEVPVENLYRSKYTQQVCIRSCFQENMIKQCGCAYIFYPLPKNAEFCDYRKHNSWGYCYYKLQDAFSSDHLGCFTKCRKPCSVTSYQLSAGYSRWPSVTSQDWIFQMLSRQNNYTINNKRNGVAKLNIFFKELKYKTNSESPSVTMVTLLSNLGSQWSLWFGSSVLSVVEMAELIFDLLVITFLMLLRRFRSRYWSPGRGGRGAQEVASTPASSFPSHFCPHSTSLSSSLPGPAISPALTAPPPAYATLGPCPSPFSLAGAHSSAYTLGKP
# T1 sequence (Q95165 1-641): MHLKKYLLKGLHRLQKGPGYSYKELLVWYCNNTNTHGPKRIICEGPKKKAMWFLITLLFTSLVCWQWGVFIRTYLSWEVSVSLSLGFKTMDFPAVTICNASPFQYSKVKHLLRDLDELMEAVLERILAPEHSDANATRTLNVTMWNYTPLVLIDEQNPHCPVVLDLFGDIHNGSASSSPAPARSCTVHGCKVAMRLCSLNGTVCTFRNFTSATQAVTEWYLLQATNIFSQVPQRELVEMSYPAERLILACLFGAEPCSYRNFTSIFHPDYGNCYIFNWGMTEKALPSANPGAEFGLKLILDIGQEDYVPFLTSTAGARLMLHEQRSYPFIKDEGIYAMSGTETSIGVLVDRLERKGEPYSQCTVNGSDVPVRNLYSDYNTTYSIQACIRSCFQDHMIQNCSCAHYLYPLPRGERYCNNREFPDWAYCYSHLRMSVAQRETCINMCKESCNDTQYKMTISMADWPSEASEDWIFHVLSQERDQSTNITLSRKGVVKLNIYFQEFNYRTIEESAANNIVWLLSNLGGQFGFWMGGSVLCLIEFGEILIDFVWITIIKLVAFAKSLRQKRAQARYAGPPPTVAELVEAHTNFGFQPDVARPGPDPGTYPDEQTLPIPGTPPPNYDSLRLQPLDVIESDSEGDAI
# T1 sequence (A0A8I3MKE6 1-646): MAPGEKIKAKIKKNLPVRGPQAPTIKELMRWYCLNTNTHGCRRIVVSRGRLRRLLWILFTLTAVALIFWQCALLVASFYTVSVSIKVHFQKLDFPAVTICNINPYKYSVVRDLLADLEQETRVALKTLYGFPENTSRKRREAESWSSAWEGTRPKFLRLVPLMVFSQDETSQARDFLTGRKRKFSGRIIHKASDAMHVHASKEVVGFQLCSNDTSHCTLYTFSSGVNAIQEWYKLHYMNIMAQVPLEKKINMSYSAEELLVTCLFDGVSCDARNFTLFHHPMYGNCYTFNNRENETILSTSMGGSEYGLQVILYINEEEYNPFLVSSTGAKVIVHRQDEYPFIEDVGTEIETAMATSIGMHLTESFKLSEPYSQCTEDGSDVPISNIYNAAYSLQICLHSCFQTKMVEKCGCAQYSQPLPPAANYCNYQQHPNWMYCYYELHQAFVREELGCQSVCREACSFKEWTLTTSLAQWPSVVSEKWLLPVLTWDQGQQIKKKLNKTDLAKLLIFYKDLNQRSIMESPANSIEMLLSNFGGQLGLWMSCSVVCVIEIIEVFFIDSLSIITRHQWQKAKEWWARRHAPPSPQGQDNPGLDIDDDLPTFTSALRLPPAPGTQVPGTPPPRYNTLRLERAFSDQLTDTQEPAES
# Method: One assay used to assess mechanism of action and/or potency of the compounds of Formula I involves the determination of lumenal drug inhibition of airway epithelial sodium currents measured under short circuit current (ISC) using airway epithelial monolayers mounted in Ussing chambers. Cells obtained from freshly excised human, dog or sheep airways are seeded onto porous 0.4 micron Snapwell™ Inserts (CoStar), cultured at air-liquid interface (ALI) conditions in hormonally defined media, and assayed for sodium transport activity (ISC in μA/cm^2) while bathed in Krebs Bicarbonate Ringer (KBR) in Ussing chambers. All test drug additions are to the lumenal bath with half-log dose addition protocols (from 1×10^−11 M to 3×10^−5 M), and the cumulative change in ISC (inhibition) recorded. All drugs are prepared in dimethyl sulfoxide as stock solutions at a concentration of 1×10^−2 M and stored at −20° C. Six preparations are typically run in parallel; one preparation per run incorporates a positive control. All data from the voltage clamps are collected via a computer interface and analyzed off-line.
# Dose-effect relationships for all compounds are considered and analyzed by the Prism 3.0 program. EC50 values, maximal effective concentrations are calculated and compared to positive controls.
# Utilizing the tests set forth above, Table 3 summaries the ENaC blocking ability of some of the amides of this invention when assayed in canine bronchial epithelium.
# [2] = Solubility of compounds in sodium chloride solution; assay type: physicochemical; conditions: saline or isotonic, thermodynamic from solid, ambient temperature
# Method: Compound solubility was measured in water, 0.12 or 0.9% sodium chloride solution at ambient temperature for up to 10 days. Using a UV/Visable Spectrophotometer and applying Beer's Law with the calculated extinction coefficient of amiloride (18.6 mM, absorbance values at 362 nm taken from D. Mazzo 1986) the free base concentration in solution was calculated at specified time points. All samples were stored for the duration of the experiment in a single/closure system consisting of glass vials with a stopper-top closure. The vials were maintained at ambient temperature, in the dark, and in the upright position. Compound stability was measured using reverse phase high performance liquid chromatography on the final filtered pulled sample (day 10).
# Table 2 gives the solubility in saline of selected amide bis methane sulfonic acid salts and compares them to the mono addition methane sulfonic acid salt of PSA 9714.
# [3] = 0.12% sodium chloride solution, 0.12% NaCl solution, read-out: S1 = Solubility in 0.12% NaCl Solution
melting point,SMILES,IC50 [1],other results
66 to 68 °C,N=C(NCCCCc1ccc(OCC(=O)OCCN)cc1)NC(=O)c1nc(Cl)c(N)nc1N (as salt: hydrochloride),–,–
100 to 102 °C,N=C(NCCCCc1ccc(OCC(=O)OCC2CCNCC2)cc1)NC(=O)c1nc(Cl)c(N)nc1N (as salt: hydrochloride),–,–
187 to 190 °C,CN(C)CCCNC(=O)COc1ccc(CCCCNC(=N)NC(=O)c2nc(Cl)c(N)nc2N)cc1 (as salt: methanesulfonate),–,–

# More lines, now with the values behind:
SMILES,melting point,IC50 [1],other results
N=C(NCCCCc1ccc(OCC(=O)OCCN2CCCCC2)cc1)NC(=O)c1nc(Cl)c(N)nc1N,60 to 62 °C,–,–
"CS(=O)(=O)O.CS(=O)(=O)O.N=C(NCCCCc1ccc(C(=O)N2CCNCC2)cc1)NC(=O)c1nc(Cl)c(N)nc1N [PSA23607, N-(3,5-Diamino-6-chloropyrazine-2-carbonyl)-N′-{4-[4-(piperazine-1-carbonyl)phenyl]butyl}guanidine bis-methanesulfonate]",122 to 124 °C,12.5 ± 0.5 nM,"solubility ([2]; 0.12% NaCl solution, read-out: S1 = Solubility in 0.12% NaCl Solution): > 5000 µg/mL"
N=C(NCCCCc1ccc(OCC(N)=O)cc1)NC(=O)c1nc(Cl)c(N)nc1N [compound 9714],–,15.2 nM,"Fold Amiloride (PSA4022 = 100) [1]: 62; solubility [2, 3]: < 100 µg/mL; solubility ([2]; 0.9% sodium chloride solution (normal saline), 0.9% NaCl solution (normal saline), read-out: S2 = Solubility in 0.9% NaCl Solution (normal Saline)): < 100 µg/mL"
N=C(NCCCCc1ccc(OCC(=O)NCCN)cc1)NC(=O)c1nc(Cl)c(N)nc1N [compound 237778],–,5 ± 2 nM,"Fold Amiloride (PSA4022 = 100) [1]: 146; solubility [2, 3]: > 5000 µg/mL"
